Structures can show the parent of a compound that is named as a salt. Where two headings read alike, the source gives them in different places.
Key:
[1] = mice, cited from earlier work
intraocular pressure = assay: Experiment 1: ocular hypotensive effect of eye drops in rabbits (applanation pneumatonograph); format: in vivo, Male Japanese White rabbits; conditions: for Difference in IOP between the control and test eyes: 50 μl
Protocol: The ocular hypotensive effect of the eye drops of this invention was investigated in rabbits. The same experiment was also conducted using a representative β-adrenergic blocking agent, and its ocular hypotensive effect was compared with that of eye drops of this invention. Methods: […] […] Male Japanese White rabbits (body weight: ca. 2 kg) with normal intraocular pressure were used in the experiment. […] For each solution, five rabbits were used. After anesthesia of the corneal surface by instillating 5 μl of 0.4%. oxybuprocaine hydrochloride, the intraocular pressure was measured using an applanation pneumatonograph (Alcon) before and after the instillation of the test solution and control solution. Measurement of intraocular pressure after the instillation was conducted with one-hour intervals until six hours post-instillation.

rabbit eyes = assay: Experiment 2: eye irritation test (modified Draize test); format: in vivo, Male Japanese White rabbits
[2] = 0.5% eye drops, before instillation

For `OCCN(CCO)c1nc(N2CCCCC2)c2nc(N(CCO)CCO)nc(N3CCCCC3)c2n1` [Compound (1), dipyridamole], the LD50 ([1]; intravenous injection) is listed as 150 mg/kg, the LD50 ([1]; subcutaneous administration) is listed as 2700 mg/kg and the “Difference in IOP between the control and test eyes” value (intraocular pressure; 0.00005% (free base), 1 hr) is listed as -0.60 mmHg. For the same compound, the “Difference in IOP between the control and test eyes” value (intraocular pressure; 0.00005% (free base), 2 hr) was -0.50 mmHg, the “Difference in IOP between the control and test eyes” value (intraocular pressure; 0.00005% (free base), 4 hr) was -0.20 mmHg and the “Difference in IOP between the control and test eyes” value (intraocular pressure; 0.00005% (free base), 6 hr) was -0.10 mmHg. For the same compound, the “time of maximal IOP reduction after instillation” value (“time of maximal IOP reduction” for short) (intraocular pressure; 0.00005% eye drops) was “one”, the “Difference in IOP between the control and test eyes” value (intraocular pressure; 0.0001% (free base), 1 hr) was -1.30 mmHg and the “Difference in IOP between the control and test eyes” value (intraocular pressure; 0.0001% (free base), 2 hr) was -0.95 mmHg. For the same compound, the “Difference in IOP between the control and test eyes” value (intraocular pressure; 0.0001% (free base), 4 hr) was -0.30 mmHg, the “Difference in IOP between the control and test eyes” value (intraocular pressure; 0.0001% (free base), 6 hr) was -0.20 mmHg and the “time of maximal IOP reduction” value (intraocular pressure; 0.0001% eye drops) was “one”. For the same compound, the “ocular hypotensive effect remained unchanged after instillation” value (intraocular pressure; 0.0005% eye drops) was 2.0 h, the “Difference in IOP between the control and test eyes” value (intraocular pressure; 0.001% (free base), 1 hr) was -2.00 mmHg and the “Difference in IOP between the control and test eyes” value (intraocular pressure; 0.001% (free base), 2 hr) was -1.56 mmHg. The “Difference in IOP between the control and test eyes” value (intraocular pressure; 0.001% (free base), 4 hr) was -1.00 mmHg, the “Difference in IOP between the control and test eyes” value (intraocular pressure; 0.001% (free base), 6 hr) was -0.75 mmHg and the “time of maximal IOP reduction” value (intraocular pressure; 0.001% eye drops) was “one”. The “Difference in IOP between the control and test eyes” value (intraocular pressure; 0.01% (free base), 1 hr) was -3.44 mmHg, the “Difference in IOP between the control and test eyes” value (intraocular pressure; 0.01% (free base), 2 hr) was -2.25 mmHg and the “Difference in IOP between the control and test eyes” value (intraocular pressure; 0.01% (free base), 4 hr) was -1.31 mmHg. The “Difference in IOP between the control and test eyes” value (intraocular pressure; 0.01% (free base), 6 hr) was -1.00 mmHg, the “ocular hypotensive effect remained unchanged after instillation” value (intraocular pressure; 0.01% eye drops) was “six” and the “time of maximal IOP reduction” value (intraocular pressure; 0.01% eye drops) was “one”. For the same compound, the “Difference in IOP between the control and test eyes” value (intraocular pressure; 0.1% (free base), 1 hr) was -4.50 mmHg, the “Difference in IOP between the control and test eyes” value (intraocular pressure; 0.1% (free base), 2 hr) was -3.05 mmHg and the “Difference in IOP between the control and test eyes” value (intraocular pressure; 0.1% (free base), 4 hr) was -2.40 mmHg. The “Difference in IOP between the control and test eyes” value (intraocular pressure; 0.1% (free base), 6 hr) was -1.00 mmHg, the “average difference of the IOP from the control eye drops” value (intraocular pressure; 0.1% eye drops) was 4.5 mmHg and the “ocular hypotensive effect retained after instillation” value (intraocular pressure; 0.1% eye drops) was “six”. The “time of maximal IOP reduction” value (intraocular pressure; 0.1% eye drops) was “one”, the “Difference in IOP between the control and test eyes” value (intraocular pressure; 0.5% (free base), 1 hr) was -3.94 mmHg and the “Difference in IOP between the control and test eyes” value (intraocular pressure; 0.5% (free base), 2 hr) was -4.40 mmHg. For the same compound, the “Difference in IOP between the control and test eyes” value (intraocular pressure; 0.5% (free base), 4 hr) was -3.10 mmHg, the “Difference in IOP between the control and test eyes” value (intraocular pressure; 0.5% (free base), 6 hr) was -1.60 mmHg and the “ocular hypotensive effect remained unchanged after instillation” value (intraocular pressure; 0.5% eye drops) was “six”. The “time of maximal IOP reduction” value (intraocular pressure; 0.5% eye drops) was “two”, the “score for the tunica conjunctiva bulbi versus control solution” value (rabbit eyes; 0.5% eye drops) was “slightly higher than that for the control solution” and the “Conjunctivae: Chemosis (average score)” value (rabbit eyes; 0.5% eye drops, 0.5 hours) was 0. For the same compound, the “Conjunctivae: Condition of haw (average score)” value (“Conjunctivae: Condition of haw” below) (rabbit eyes; 0.5% eye drops, 0.5 hours) was 0.6, the “Conjunctivae: Discharge (average score)” value (rabbit eyes; 0.5% eye drops, 0.5 hours) was 0 and the “Conjunctivae: Redness of tunica conjunctivae bulbi (average score)” value (rabbit eyes; 0.5% eye drops, 0.5 hours) was 0.9. The “Conjunctivae: Redness of tunica conjunctivae palpebrarum (average score)” value (rabbit eyes; 0.5% eye drops, 0.5 hours) was 1.5, the “Cornea: Area of cornea involved (average score)” value (shortened to “Cornea: Area of cornea involved”) (rabbit eyes; 0.5% eye drops, 0.5 hours) was 0 and the “Cornea: Opacity degree of density (average score)” value (from here on “Cornea: Opacity degree of density”) (rabbit eyes; 0.5% eye drops, 0.5 hours) was 0. The “Iris: values (average score)” value (rabbit eyes; 0.5% eye drops, 0.5 hours) was 0.5, the “congestion in the iris” value (rabbit eyes; 0.5% eye drops, 0.5 hours after instillation) was “slight congestion” and the “Conjunctivae: Chemosis (average score)” value (rabbit eyes; 0.5% eye drops, 1 hour) was 0. For the same compound, the “Conjunctivae: Condition of haw” value (rabbit eyes; 0.5% eye drops, 1 hour) was 0.5, the “Conjunctivae: Discharge (average score)” value (rabbit eyes; 0.5% eye drops, 1 hour) was 0 and the “Conjunctivae: Redness of tunica conjunctivae bulbi (average score)” value (rabbit eyes; 0.5% eye drops, 1 hour) was 1.1. The “Conjunctivae: Redness of tunica conjunctivae palpebrarum (average score)” value (rabbit eyes; 0.5% eye drops, 1 hour) was 1.8, the “Cornea: Area of cornea involved” value (rabbit eyes; 0.5% eye drops, 1 hour) was 0 and the “Cornea: Opacity degree of density” value (rabbit eyes; 0.5% eye drops, 1 hour) was 0. The “Iris: values (average score)” value (rabbit eyes; 0.5% eye drops, 1 hour) was 1.0, the “Conjunctivae: Chemosis (average score)” value (rabbit eyes; 0.5% eye drops, 2 hours) was 0 and the “Conjunctivae: Condition of haw” value (rabbit eyes; 0.5% eye drops, 2 hours) was 0.5. The “Conjunctivae: Discharge (average score)” value (rabbit eyes; 0.5% eye drops, 2 hours) was 0, the “Conjunctivae: Redness of tunica conjunctivae bulbi (average score)” value (rabbit eyes; 0.5% eye drops, 2 hours) was 0.9 and the “Conjunctivae: Redness of tunica conjunctivae palpebrarum (average score)” value (rabbit eyes; 0.5% eye drops, 2 hours) was 1.8. The “Cornea: Area of cornea involved” value (rabbit eyes; 0.5% eye drops, 2 hours) was 0, the “Cornea: Opacity degree of density” value (rabbit eyes; 0.5% eye drops, 2 hours) was 0 and the “Iris: values (average score)” value (rabbit eyes; 0.5% eye drops, 2 hours) was 0.8. The “Conjunctivae: Chemosis (average score)” value (rabbit eyes; 0.5% eye drops, 3 hours) was 0, the “Conjunctivae: Condition of haw” value (rabbit eyes; 0.5% eye drops, 3 hours) was 0.5 and the “Conjunctivae: Discharge (average score)” value (rabbit eyes; 0.5% eye drops, 3 hours) was 0. The “Conjunctivae: Redness of tunica conjunctivae bulbi (average score)” value (rabbit eyes; 0.5% eye drops, 3 hours) was 0.5, the “Conjunctivae: Redness of tunica conjunctivae palpebrarum (average score)” value (rabbit eyes; 0.5% eye drops, 3 hours) was 1.3 and the “Cornea: Area of cornea involved” value (rabbit eyes; 0.5% eye drops, 3 hours) was 0. For the same compound, the “Cornea: Opacity degree of density” value (rabbit eyes; 0.5% eye drops, 3 hours) was 0, the “Iris: values (average score)” value (rabbit eyes; 0.5% eye drops, 3 hours) was 0.5 and the “Conjunctivae: Chemosis (average score)” value (rabbit eyes; 0.5% eye drops, 6 hours) was 0. For the same compound, the “Conjunctivae: Condition of haw” value (rabbit eyes; 0.5% eye drops, 6 hours) was 0.5, the “Conjunctivae: Discharge (average score)” value (rabbit eyes; 0.5% eye drops, 6 hours) was 0 and the “Conjunctivae: Redness of tunica conjunctivae bulbi (average score)” value (rabbit eyes; 0.5% eye drops, 6 hours) was 0.1. For the same compound, the “Conjunctivae: Redness of tunica conjunctivae palpebrarum (average score)” value (rabbit eyes; 0.5% eye drops, 6 hours) was 0.8, the “Cornea: Area of cornea involved” value (rabbit eyes; 0.5% eye drops, 6 hours) was 0 and the “Cornea: Opacity degree of density” value (rabbit eyes; 0.5% eye drops, 6 hours) was 0. The “Iris: values (average score)” value (rabbit eyes; 0.5% eye drops, 6 hours) was 0, the “congestion in the iris” value (rabbit eyes; 0.5% eye drops, after 6 hours) was “disappeared” and the “Conjunctivae: Chemosis (average score)” value (rabbit eyes; [2]) was 0. For the same compound, the “Conjunctivae: Condition of haw” value (rabbit eyes; [2]) was 0.4, the “Conjunctivae: Discharge (average score)” value (rabbit eyes; [2]) was 0 and the “Conjunctivae: Redness of tunica conjunctivae bulbi (average score)” value (rabbit eyes; [2]) was 0.1. For the same compound, the “Conjunctivae: Redness of tunica conjunctivae palpebrarum (average score)” value (rabbit eyes; [2]) was 0.8, the “Cornea: Area of cornea involved” value (rabbit eyes; [2]) was 0 and the “Cornea: Opacity degree of density” value (rabbit eyes; [2]) was 0. The “Iris: values (average score)” value (rabbit eyes; [2]) was 0, the “other irritation items, test solution versus control solution” value (rabbit eyes; 0.5% eye drops, irrespective of time) was “no difference” and the “irritation to rabbit eyes (overall)” value (rabbit eyes; eye drops of the present invention) was “negligible irritation”.

For `CC(C)(C)NC[C@H](O)COc1nsnc1N1CCOCC1` [Timolol maleate, timolol maleate], the “Difference in IOP between the control and test eyes” value (intraocular pressure; 0.5% (free base), 1 hr) was -0.80 mmHg, the “Difference in IOP between the control and test eyes” value (intraocular pressure; 0.5% (free base), 2 hr) was -0.80 mmHg and the “Difference in IOP between the control and test eyes” value (intraocular pressure; 0.5% (free base), 4 hr) was -0.25 mmHg. The “Difference in IOP between the control and test eyes” value (intraocular pressure; 0.5% (free base), 6 hr) was -0.10 mmHg, the IOP reduction (intraocular pressure; 0.5% eye drops, one hour after instillation) was 0.8 mmHg and the IOP reduction (intraocular pressure; 0.5% eye drops, two hours after instillation) was 0.8 mmHg. The “degree of the IOP reduction compared with the 0.0001% eye drops of the invention” value (intraocular pressure; 0.5% timolol eye drops) was “significantly less”.
